Laboratory results from patent US9181277B2, “Aminoquinazoline derivatives and their salts and methods of use” (SUNSHINE LAKE PHARMA CO., LTD., priority 2011, dated 2015).

Molecular target: EGFR Kinase (Homo sapiens, UniProt P00533)
Test: EGFR inhibitory activity test (HTRF kinEASE STK S1 kinase assay)
Format: biochemical
Conditions: replicate wells, read-out: IC50(nM), Inhibitory Activity of Compounds on EGFR Kinase
Protocol: In a pilot study, the compounds disclosed herein were screened for their EGFR inhibitory activity. The Cisbio Research Product HTRF kinEASE STK S1 kinase assay/inhibitor screening Kit, can detect the generation of the phosphorylated substrate. Kinase, biotinylated substrate and ATP were first added into buffer solution, and the phosphorylated biotinylated substrates were formed by enzyme reaction. Then, to the above solution was added europium-labeled anti-phospho-site specific antibodies and XL665-labeled avidin. The Specific combinations of antibody with antigen, and biotin with avidin, bring the europium and XL665 closer together and resonance energy transferred. The signals at 620 nm and 665 nm were detected, and the activity of the kinase was evaluated by the ratio of the two signals value.

Sequence of EGFR Kinase (P00533 25-1210): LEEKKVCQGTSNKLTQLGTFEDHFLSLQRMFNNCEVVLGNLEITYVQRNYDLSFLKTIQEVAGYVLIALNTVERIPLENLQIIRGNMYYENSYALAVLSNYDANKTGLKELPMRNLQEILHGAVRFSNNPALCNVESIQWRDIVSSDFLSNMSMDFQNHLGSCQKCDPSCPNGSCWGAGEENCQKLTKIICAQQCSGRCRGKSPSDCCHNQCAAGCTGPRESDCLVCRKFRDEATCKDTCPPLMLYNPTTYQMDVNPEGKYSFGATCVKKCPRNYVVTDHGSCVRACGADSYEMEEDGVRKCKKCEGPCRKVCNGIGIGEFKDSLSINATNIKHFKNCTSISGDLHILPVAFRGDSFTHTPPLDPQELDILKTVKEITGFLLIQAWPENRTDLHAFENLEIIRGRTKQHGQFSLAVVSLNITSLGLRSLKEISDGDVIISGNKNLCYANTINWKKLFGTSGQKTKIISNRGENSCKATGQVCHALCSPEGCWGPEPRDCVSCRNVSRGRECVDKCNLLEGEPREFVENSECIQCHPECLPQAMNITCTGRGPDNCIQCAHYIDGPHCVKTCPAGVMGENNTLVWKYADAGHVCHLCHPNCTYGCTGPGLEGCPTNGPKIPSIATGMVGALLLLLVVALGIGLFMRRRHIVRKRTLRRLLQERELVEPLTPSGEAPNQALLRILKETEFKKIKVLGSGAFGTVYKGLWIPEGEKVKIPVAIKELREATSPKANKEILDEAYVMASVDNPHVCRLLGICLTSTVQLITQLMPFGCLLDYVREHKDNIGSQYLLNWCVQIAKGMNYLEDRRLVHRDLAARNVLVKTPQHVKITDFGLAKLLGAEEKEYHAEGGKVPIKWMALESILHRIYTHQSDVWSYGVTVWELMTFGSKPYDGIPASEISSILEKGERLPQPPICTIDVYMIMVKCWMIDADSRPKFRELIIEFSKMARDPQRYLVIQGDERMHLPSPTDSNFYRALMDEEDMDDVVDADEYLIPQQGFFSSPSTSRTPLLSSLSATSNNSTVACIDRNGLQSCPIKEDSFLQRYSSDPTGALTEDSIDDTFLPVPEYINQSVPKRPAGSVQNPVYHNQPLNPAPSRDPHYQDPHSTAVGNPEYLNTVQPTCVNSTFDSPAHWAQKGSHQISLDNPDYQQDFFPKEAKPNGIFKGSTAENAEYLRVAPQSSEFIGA

Compound	IC50 [nM]
COc1cc2ncnc(Nc3ccc(F)c(Cl)c3)c2cc1OCCCN1CCC2CCCCC2C1 (stereo not drawn) [Example 35, N-(3-chloro-4-fluorophenyl)-7-methoxy-6-(3-(octahydroisoquinolin-2(1H)-yl)propoxy)quinazolin-4-amine]	0.001 to 0.1
COc1cc2ncnc(Nc3ccc(F)c(Cl)c3)c2cc1OCCCN1CCC2OCCOC2C1 (stereo not drawn) [Example 36, N-(3-chloro-4-fluorophenyl)-6-(3-(hexahydro-[1,4]dioxino[2,3-c]pyridin-6(7H)-yl)propoxy)-7-methoxyquinazolin-4-amine]	1 to 10
COc1cc2ncnc(Nc3ccc(F)cc3)c2cc1OCCCN1CC2CNCC2C1 (stereo not drawn) [Example 41, N-(4-fluorophenyl)-6-(3-(hexahydropyrrolo[3,4-c]pyrrol-2(1H)-yl)propoxy)-7-methoxyquinazolin-4-amine]	0.001 to 0.1
COc1cc2ncnc(Nc3ccc(F)cc3)c2cc1OCCCN1CCn2cnnc2C1 [Example 42, 6-(3-(5,6-dihydro-[1,2,4]triazolo[4,3-a]pyrazin-7(8H)-yl)propoxy)-N-(4-fluorophenyl)-7-methoxyquinazolin-4-amine]	1 to 10
COc1cc2ncnc(Nc3ccc(F)cc3)c2cc1OCCCN1CCC2COCC2C1 (stereo not drawn) [Example 43, N-(4-fluorophenyl)-6-(3-(hexahydrofuro[3,4-c]pyridin-5(3H)-yl)propoxy)-7-methoxyquinazolin-4-amine]	0.101 to 1
C#Cc1cc(Nc2ncnc3cc(OC)c(OCCCN4CC5CNCC5C4)cc23)ccc1F (stereo not drawn) [Example 44, N-(3-ethynyl-4-fluorophenyl)-6-(3-(hexahydropyrrolo[3,4-c]pyrrol-2(1H)-yl)propoxy)-7-methoxyquinazolin-4-amine]	0.101 to 1

Results, then the compound that gave them:

IC50 [nM]	Compound
0.001 to 0.1	CCN1CCCC2CN(CCCOc3cc4c(Nc5ccc(F)c(Cl)c5)ncnc4cc3OC)CC21 (stereo not drawn) [Example 34, N-(3-chloro-4-fluorophenyl)-6-(3-(1-ethylhexahydro-1H-pyrrolo[3,4-b]pyridin-6(2H)-yl)propoxy)-7-methoxyquinazolin-4-amine]
1 to 10	COc1cc2ncnc(Nc3ccc(F)c(Cl)c3)c2cc1OCCCN1CCC2COCC2C1 (stereo not drawn) [Example 37, N-(3-chloro-4-fluorophenyl)-6-(3-(hexahydrofuro[3,4-c]pyridin-5(3H)-yl)propoxy)-7-methoxy quinazolin-4-amine]
0.101 to 1	COc1cc2ncnc(Nc3ccc(F)c(Cl)c3)c2cc1OCCCN1CCc2c(c(C)nn2C)C1 [Example 38, N-(3-chloro-4-fluorophenyl)-6-(3-(1,3-dimethyl-6,7-dihydro-1H-pyrazolo[4,3-c]pyridin-5(4H)-yl)propoxy)-7-methoxyquinazolin-4-amine]
1 to 10	COc1cc2ncnc(Nc3ccc(F)c(Cl)c3)c2cc1OCCCN1CCc2nn(C)c(C)c2C1 [Example 39, N-(3-chloro-4-fluorophenyl)-6-(3-(2,3-dimethyl-6,7-dihydro-2H-pyrazolo[4,3-c]pyridine-5(4H)-yl)propoxy)-7-methoxyquinazolin-4-amine]
0.001 to 0.1	COc1cc2ncnc(Nc3ccc(F)c(Cl)c3)c2cc1OCCCN1C[C@@H]2OCCO[C@H]2C1 [Example 40, N-(3-chloro-4-fluorophenyl)-7-methoxy-6-(3-((4aS,7aS)-tetrahydro-2H-[1,4]dioxino[2,3-c]pyrrol-6(3H)-yl)propoxy)quinazolin-4-amine]
0.101 to 1	C#Cc1cc(Nc2ncnc3cc(OC)c(OCCCN4CCn5cnnc5C4)cc23)ccc1F [Example 45, 6-(3-(5,6-dihydro-[1,2,4]triazolo[4,3-a]pyrazin-7(8H)-yl)propoxy)-N-(3-ethynyl-4-fluorophenyl)-7-m ethoxyquinazolin-4-amine]
